Assay results: patent US10996170B2, “Device and method for imaging shortwave infrared fluorescence” (Massachusetts Institute of Technology, priority 2016, dated 2021)

System: liver
Assay: SWIR imaging of hepatobiliary clearance in vivo
Conditions: 1.7 mg/kg intravenously; mouse
Protocol: When injected into a living system, indocyanine green is metabolized by the liver and excreted by the liver and bile ducts by a process called hepatobiliary clearance. This process was observed, noninvasively, by injecting a solution of indocyanine green intravenously into a mouse and using an SWIR imaging system as described herein to observe the fluorescence of indocyanine green. The dye was injected at a dose of 1.7 mg/kg which is below the maximum recommended dose of indocyanine green in humans. […] Despite the fact that 1500 nm is far from the peak emission of indocyanine green, there is sufficient emission intensity from the tail of the emission peak in this wavelength region to obtain a SWIR fluorescence image. Separately, hepatobiliary excretion of ICG into the small intestine in a mouse was also imaged using a near video rate imaging of 19.7 frames per second using a 1200 nm long-pass filter, which enabled capturing the peristaltic movements of the small intestine. Although the frame rate was slower, 2.0 frames per second, it was possible to image the ICG clearance using a 1500 nm long-pass filter, capturing wavelengths between roughly 1500 and 1620 nm.

With `CC1(C)C(/C=C/C=C/C=C/C=C2\N(CCCCS(=O)(=O)O)c3ccc4ccccc4c3C2(C)C)=[N+](CCCCS(=O)(=O)[O-])c2ccc3ccccc3c21` [ICG, indocyanine green] the “tissue distribution observed by SWIR fluorescence” value was “Accumulation of indocyanine green in the liver”.
